Experimental data from patent US20140212495A1, “NANOPARTICULATE COMPOSITIONS OF TUBULIN INHIBITOR COMPOUNDS” (Ziopharm Oncology, Inc., priority 2004, published 2014).
Like-named read-outs stand apart in the source and are kept apart here.

How the values were obtained:
[1] = 4-week subchronic toxicity study in dogs, D-24851 plasma pharmacokinetics; format: in vivo; conditions: for AUC / Cmax / Tmax / half-life / AUC(0-t): dog, plasma, iv; for AUC(0-t): read-out: AUC0-tlast,md
Description: Blood samples from all animals were taken at the following times: 1 h, 2 h, 4 h, 8 h, 16 h, 24 h, 36 h and 48 hours after application. The concentration levels of D-24851 were measured using HPLC.

[2] = tested on: tubulin; conditions: cited from earlier work
[3] = tested on: cell cycle progression at metaphase; conditions: cited from earlier work
[4] = tested on: a variety of malignancies (e.g., prostate, brain, breast, pancreas, and colon); conditions: cited from earlier work
[5] = cited from earlier work

Question: For `O=C(Nc1ccncc1)C(=O)c1cn(Cc2ccc(Cl)cc2)c2ccccc12` [Composition D-24851, N-(Pyridin-4-yl)-[1-(4-chlorobenzyl)-indol-3-yl]glyoxylic acid amide], which “dose dependence of plasma concentrations” value ([1]; Composition 4 i.v. 2.61, 5.62 and 12.1 mg/kg) is on record?
Answer: depend from the dose

Question: What about the “plasma profiles day 1 versus day 27” value ([1]; Composition 4 i.v., 4 weeks) of the same compound?
Answer: of similar magnitude at day 1 and day 27 dosings

Question: And the CL/f ([1]; Day 1, Composition 4 i.v. 5.62 mg/kg, Males, Meanar n=3)?
Answer: 38.1 mL/min/kg

Question: What about the CL/f ([1]; Day 1, Composition 4 i.v. 12.1 mg/kg, Females, Meanar n=3) of the same compound?
Answer: 31.1 mL/min/kg

Question: What about the CL/f ([1]; Day 1, Composition 4 i.v. 12.1 mg/kg, Males, Meanar n=3) of the same compound?
Answer: 29.5 mL/min/kg

Question: What about the CL/f ([1]; Day 27, Composition 4 i.v. 5.62 mg/kg, Males, Meanar n=3) of the same compound?
Answer: 38.1 mL/min/kg

Question: And the CL/f ([1]; Day 27, Composition 4 i.v. 12.1 mg/kg, Females, Meanar n=3)?
Answer: 31.1 mL/min/kg

Question: What about the CL/f ([1]; Day 27, Composition 4 i.v. 12.1 mg/kg, Males, Meanar n=3) of the same compound?
Answer: 29.5 mL/min/kg

Question: And the AUC ([1]; female, 2.61 mg/kg, Day 1, Composition 4 i.v. 2.61 mg/kg, Females, Meanar n=3, read-out: AUCτ, sd)?
Answer: 3400 ng·h/mL

Question: What about the Cmax ([1]; female, 2.61 mg/kg, Day 1, Composition 4 i.v. 2.61 mg/kg, Females, Meanar n=3, read-out: Cmax, sd) of the same compound?
Answer: 210 ng/mL

Question: What about the Tmax ([1]; female, 2.61 mg/kg, Day 1, Composition 4 i.v. 2.61 mg/kg, Females, Meanar n=3, read-out: tmax, sd) of the same compound?
Answer: 1.67 h

Question: And the half-life ([1]; female, 2.61 mg/kg, Day 1, Composition 4 i.v. 2.61 mg/kg, Females, only for orientating, unsufficient curve fitting)?
Answer: 41 h

Question: And the AUC ([1]; female, 2.61 mg/kg, Day 27, Composition 4 i.v. 2.61 mg/kg, Females, Meanar n=3, read-out: AUCτ, md)?
Answer: 1410 ng·h/mL

Question: And the Cmax ([1]; female, 2.61 mg/kg, Day 27, Composition 4 i.v. 2.61 mg/kg, Females, Meanar n=3, read-out: Cmax, md)?
Answer: 148 ng/mL

Question: What about the Tmax ([1]; female, 2.61 mg/kg, Day 27, Composition 4 i.v. 2.61 mg/kg, Females, Meanar n=3, read-out: tmax, md) of the same compound?
Answer: 2.33 h

Question: What about the half-life ([1]; female, 2.61 mg/kg, Day 27, Composition 4 i.v. 2.61 mg/kg, Females, only for orientating, insufficient curve fitting) of the same compound?
Answer: 28.3 h

Question: What about the AUC(0-t) ([1]; female, 2.61 mg/kg) of the same compound?
Answer: 1100 ng·h/mL

Question: What about the AUC ([1]; female, 5.62 mg/kg, Day 1, Composition 4 i.v. 5.62 mg/kg, Females, Meanar n=3, read-out: AUCτ, sd) of the same compound?
Answer: 3540 ng·h/mL

Question: What about the Cmax ([1]; female, 5.62 mg/kg, Day 1, Composition 4 i.v. 5.62 mg/kg, Females, Meanar n=3, read-out: Cmax, sd) of the same compound?
Answer: 279 ng/mL

Question: What about the half-life ([1]; female, 5.62 mg/kg, Day 1, Composition 4 i.v. 5.62 mg/kg, Females, only for orientating, unsufficient curve fitting) of the same compound?
Answer: 20 h

Question: What about the half-life ([1]; female, 5.62 mg/kg, Day 27, Composition 4 i.v. 5.62 mg/kg, Females, Meanar n=3) of the same compound?
Answer: 14.8 h

Question: What about the AUC ([1]; female, 5.62 mg/kg, Day 27, Composition 4 i.v. 5.62 mg/kg, Females, Meanar n=3, read-out: AUCτ, md) of the same compound?
Answer: 2960 ng·h/mL

Question: And the Cmax ([1]; female, 5.62 mg/kg, Day 27, Composition 4 i.v. 5.62 mg/kg, Females, Meanar n=3, read-out: Cmax, md)?
Answer: 315 ng/mL

Question: What about the Tmax ([1]; female, 5.62 mg/kg, Day 27, Composition 4 i.v. 5.62 mg/kg, Females, Meanar n=3, read-out: tmax, md) of the same compound?
Answer: 2.33 h

Question: And the AUC(0-t) ([1]; female, 5.62 mg/kg)?
Answer: 2740 ng·h/mL

Question: What about the Tmax ([1]; female, 5.62 mg/kg, read-out: tmax, sd) of the same compound?
Answer: 2 h

Question: And the half-life ([1]; female, 12.1 mg/kg, Day 1, Composition 4 i.v. 12.1 mg/kg, Females, Meanar n=3)?
Answer: 11.6 h

Question: What about the AUC ([1]; female, 12.1 mg/kg, Day 1, Composition 4 i.v. 12.1 mg/kg, Females, Meanar n=3, read-out: AUCsd) of the same compound?
Answer: 8250 ng·h/mL

Question: What about the AUC ([1]; female, 12.1 mg/kg, Day 1, Composition 4 i.v. 12.1 mg/kg, Females, Meanar n=3, read-out: AUCτ, sd) of the same compound?
Answer: 7670 ng·h/mL

Question: What about the Cmax ([1]; female, 12.1 mg/kg, Day 1, Composition 4 i.v. 12.1 mg/kg, Females, Meanar n=3, read-out: Cmax, sd) of the same compound?
Answer: 860 ng/mL

Question: And the Tmax ([1]; female, 12.1 mg/kg, Day 1, Composition 4 i.v. 12.1 mg/kg, Females, Meanar n=3, read-out: tmax, sd)?
Answer: 2.33 h

Question: What about the half-life ([1]; female, 12.1 mg/kg, Day 27, Composition 4 i.v. 12.1 mg/kg, Females, Meanar n=3) of the same compound?
Answer: 24.2 h

Question: And the AUC ([1]; female, 12.1 mg/kg, Day 27, Composition 4 i.v. 12.1 mg/kg, Females, Meanar n=3, read-out: AUCτ, md)?
Answer: 4850 ng·h/mL

Question: What about the Cmax ([1]; female, 12.1 mg/kg, Day 27, Composition 4 i.v. 12.1 mg/kg, Females, Meanar n=3, read-out: Cmax, md) of the same compound?
Answer: 329 ng/mL

Question: And the Tmax ([1]; female, 12.1 mg/kg, Day 27, Composition 4 i.v. 12.1 mg/kg, Females, Meanar n=3, read-out: tmax, md)?
Answer: 2.67 h

Question: What about the AUC(0-t) ([1]; female, 12.1 mg/kg) of the same compound?
Answer: 4850 ng·h/mL

Question: And the Cmax ([1]; male, 2.61 mg/kg, Day 1, Composition 4 i.v. 2.61 mg/kg, Males, Meanar n=3, read-out: Cmax, sd)?
Answer: 147 ng/mL

Question: What about the Tmax ([1]; male, 2.61 mg/kg, Day 1, Composition 4 i.v. 2.61 mg/kg, Males, Meanar n=3, read-out: tmax, sd) of the same compound?
Answer: 1.67 h

Question: And the half-life ([1]; male, 2.61 mg/kg, Day 27, Composition 4 i.v. 2.61 mg/kg, Males, Meanar n=3)?
Answer: 40.7 h

Question: And the AUC ([1]; male, 2.61 mg/kg, Day 27, Composition 4 i.v. 2.61 mg/kg, Males, Meanar n=3, read-out: AUCτ, md)?
Answer: 1740 ng·h/mL

Question: What about the Cmax ([1]; male, 2.61 mg/kg, Day 27, Composition 4 i.v. 2.61 mg/kg, Males, Meanar n=3, read-out: Cmax, md) of the same compound?
Answer: 224 ng/mL

Question: What about the Tmax ([1]; male, 2.61 mg/kg, Day 27, Composition 4 i.v. 2.61 mg/kg, Males, Meanar n=3, read-out: tmax, md) of the same compound?
Answer: 1.33 h

Question: What about the AUC(0-t) ([1]; male, 2.61 mg/kg) of the same compound?
Answer: 1450 ng·h/mL

Question: And the half-life ([1]; male, 5.62 mg/kg, Day 1, Composition 4 i.v. 5.62 mg/kg, Males, Meanar n=3)?
Answer: 6.63 h

Question: What about the AUC ([1]; male, 5.62 mg/kg, Day 1, Composition 4 i.v. 5.62 mg/kg, Males, Meanar n=3, read-out: AUCsd) of the same compound?
Answer: 2470 ng·h/mL

Question: And the AUC ([1]; male, 5.62 mg/kg, Day 1, Composition 4 i.v. 5.62 mg/kg, Males, Meanar n=3, read-out: AUCτ, sd)?
Answer: 2590 ng·h/mL

Question: What about the Cmax ([1]; male, 5.62 mg/kg, Day 1, Composition 4 i.v. 5.62 mg/kg, Males, Meanar n=3, read-out: Cmax, sd) of the same compound?
Answer: 241 ng/mL

Question: And the Cmax ([1]; male, 5.62 mg/kg, Day 27, Composition 4 i.v. 5.62 mg/kg, Males, Meanar n=3, read-out: Cmax, md)?
Answer: 186 ng/mL

Question: What about the Tmax ([1]; male, 5.62 mg/kg, Day 27, Composition 4 i.v. 5.62 mg/kg, Males, Meanar n=3, read-out: tmax, md) of the same compound?
Answer: 2.33 h

Question: What about the half-life ([1]; male, 5.62 mg/kg, Day 27, Composition 4 i.v. 5.62 mg/kg, Males, marked ** (footnote not given)) of the same compound?
Answer: 5.1 h

Question: And the AUC(0-t) ([1]; male, 5.62 mg/kg)?
Answer: 1320 ng·h/mL

Question: And the AUC ([1]; male, 5.62 mg/kg, read-out: AUCτ, md)?
Answer: 1850 ng·h/mL

Question: And the Tmax ([1]; male, 5.62 mg/kg, read-out: tmax, sd)?
Answer: 2 h

Question: And the half-life ([1]; male, 12.1 mg/kg, Day 1, Composition 4 i.v. 12.1 mg/kg, Males, Meanar n=3)?
Answer: 8.74 h

Question: What about the AUC ([1]; male, 12.1 mg/kg, Day 1, Composition 4 i.v. 12.1 mg/kg, Males, Meanar n=3, read-out: AUCsd) of the same compound?
Answer: 6980 ng·h/mL

Question: And the AUC ([1]; male, 12.1 mg/kg, Day 1, Composition 4 i.v. 12.1 mg/kg, Males, Meanar n=3, read-out: AUCτ, sd)?
Answer: 6870 ng·h/mL

Question: What about the Cmax ([1]; male, 12.1 mg/kg, Day 1, Composition 4 i.v. 12.1 mg/kg, Males, Meanar n=3, read-out: Cmax, sd) of the same compound?
Answer: 592 ng/mL

Question: What about the Tmax ([1]; male, 12.1 mg/kg, Day 1, Composition 4 i.v. 12.1 mg/kg, Males, Meanar n=3, read-out: tmax, sd) of the same compound?
Answer: 2.67 h

Question: What about the half-life ([1]; male, 12.1 mg/kg, Day 27, Composition 4 i.v. 12.1 mg/kg, Males, Meanar n=3) of the same compound?
Answer: 11.9 h

Question: What about the AUC ([1]; male, 12.1 mg/kg, Day 27, Composition 4 i.v. 12.1 mg/kg, Males, Meanar n=3, read-out: AUCτ, md) of the same compound?
Answer: 5620 ng·h/mL

Question: And the Cmax ([1]; male, 12.1 mg/kg, Day 27, Composition 4 i.v. 12.1 mg/kg, Males, Meanar n=3, read-out: Cmax, md)?
Answer: 435 ng/mL

Question: And the Tmax ([1]; male, 12.1 mg/kg, Day 27, Composition 4 i.v. 12.1 mg/kg, Males, Meanar n=3, read-out: tmax, md)?
Answer: 2.67 h

Question: What about the AUC(0-t) ([1]; male, 12.1 mg/kg) of the same compound?
Answer: 5560 ng·h/mL

Question: What about the “overlap of binding site with tubulin-binding sites of vincristine or colchicine” value [2] of the same compound?
Answer: does not appear to overlap

Question: And the effect on microtubules ([2]; in tumor cells, as well as in a cell-free system)?
Answer: destabilizes microtubules

Question: And the “effect on cell cycle progression” value [3]?
Answer: selectively blocks cell cycle progression at metaphase

Question: What about the “antitumor activity in vitro” value [4] of the same compound?
Answer: significant antitumor activity

Question: What about the neurological symptoms ([5]; animal experiments) of the same compound?
Answer: No neurological symptoms

Question: And the in-vivo antineoplastic efficacy ([5]; animals)?
Answer: high in-vivo antineoplastic efficacy

Question: And the tolerability ([5]; preclinical experiments in rodents)?
Answer: very well tolerated at highly effective doses
